Source: paper PMC12471852, “Design and Synthesis of Marine-Inspired Itampolin A Derivatives to Overcome Chemoresistance in NSCLC via Cholesterol Homeostasis Modulation” (Marine Drugs, 2025)

Test system: PC9/GR cells
Assay: Clonogenic survival / colony formation assay
Format: cell-based, human
Conditions: 24 h pretreatment, 14 days culture, p < 0.05 vs untreated controls
Protocol: To evaluate the tumor-selective activity of compounds 4l and 4m, dose–response studies were performed on wild-type PC9 and gefitinib-resistant PC9/GR cell lines. […] Subtoxic concentrations of 25, 50, and 75 μM were employed to ensure specificity for drug-resistant phenotypes while preserving normal cell viability. […] To assess long-term proliferative potential, clonogenic survival assays were performed. Cells pretreated with 4l (24 h) were trypsinized to generate single-cell suspensions, plated at 300 cells/well, and cultured for 14 days. […] Cell migration ability was evaluated by the scratch healing assay. […] To evaluate the pro-apoptotic efficacy of 4l, we employed a dual-staining approach using Annexin V-FITC and propidium iodide (PI) for quadrant-specific quantification of programmed cell death. Annexin V binds externalized phosphatidylserine (PS), a hallmark of early apoptosis, while PI permeabilization discriminates late-stage apoptotic or necrotic cells.
Clonogenic Survival: Single-cell suspensions (300 cells/well) were cultured for 14 days. Colonies (>50 cells) were fixed (4% PFA), stained with crystal violet, and counted.
PC9/GR cells were seeded into 6-well plates at a density of […] and cultured in a 37 °C incubator for 2 weeks. The culture medium was then discarded, and the cells were washed with PBS. […] Finally, the number of cell colonies was counted.

O=C(NCCc1cc(Br)c(O)c(Br)c1)Nc1ccc(F)cc1 [4l, 1-(3,5-dibromo-4-hydroxyphenethyl)-3-(4-fluorophenyl)urea]
colony formation: statistically significant inhibition
